# Assay results from patent publication US20240376073A1 (Hoffmann-La Roche Inc., priority 2021, published 2024).
# Where a name gives a salt, the structure may show the parent alone.
# System: Acinetobacter baumannii ATCC17961
# Assay: Antimicrobial susceptibility testing: 90% growth inhibitory concentration (IC90) determination
# Type: cell-based
# Conditions: Acinetobacter baumannii ATCC17961; Iso-Sensitest broth; growth by OD 600 nm over 16 h; 35±2° C.; read-out: ATCC 17961 IC90
# Experimental: The in vitro antimicrobial activity of the compounds was determined according to the following procedure:
# The assay used a 10-points Iso-Sensitest broth medium to measure quantitatively the in vitro activity of the compounds against Acinetobacter baumannii ATCC17961.
# Stock compounds in DMSO were serially twofold diluted (e.g. range from 50 to 0.097 μM final concentration) in 384 wells microtiter plates and inoculated with 49 μl the bacterial suspension in Iso-Sensitest medium to have a final cell concentration of ˜5×10^(5) CFU/ml in a final volume/well of 50 ul/well. Microtiter plates were incubated at 35±2° C.
# Bacterial cell growth was determined with the measurement of optical density at λ=600 nm each 20 minutes over a time course of 16 h. Growth inhibition was calculated during the logarithmic growth of the bacterial cells with determination of the concentration inhibiting 50% (IC50) and 90% (IC90) of the growth.
# Table 1 provides the […] growth inhibitory concentrations (IC90) in micromoles per liter of the compounds of present invention obtained against the strain Acinetobacter baumannii ATCC17961.
row,SMILES,IC90 [µM]
1,"COc1ccc(-c2cnc(C(=O)Nc3ccc(C(=O)N4CCC(NC(=O)C[N+](C)(C)CC(N)=O)CC4)c(Cl)c3)n2C)c(F)c1F [Example B5, (2-amino-2-oxo-ethyl)-[2-[1-[2-chloro-4-[5-(2,3-difluoro-4-methoxy-phenyl)-1-methyl-imidazole-2-carbonyl]amino]benzoyl]-4-piperidyl]amino]-2-oxo-ethyl]-dimethyl-ammonium; formate]",0.12
2,"COc1ccc(-c2cnc(C(=O)Nc3ccc(C(=O)NC4CN(C(=O)C[N+](C)(C)CC(N)=O)C4)c(Cl)c3)n2C)c(F)c1F [Example B6, (2-amino-2-oxo-ethyl)-[2-[3-[[2-chloro-4-[[5-(2,3-difluoro-4-methoxy-phenyl)-1-methyl-imidazole-2-carbonyl]amino]benzoyl]aminoJazetidin-1-yl]-2-oxo-ethyl]-dimethyl-ammonium; formate]",0.29
3,"COc1ccc(-c2cnc(C(=O)Nc3ccc(C(=O)N4CCN(C(=O)C[N+](C)(C)CC(N)=O)CC4)c(Cl)c3)n2C)c(F)c1F [Example B7, (2-amino-2-oxo-ethyl)-[2-[4-[2-chloro-4-[[5-(2,3-difluoro-4-methoxy-phenyl)-1-methyl-imidazole-2-carbonyl]amino]benzoyl]piperazin-1-yl]-2-oxo-ethyl]-dimethyl-ammonium; formate]",0.099
4,"COc1ccc(-c2cnc(C(=O)Nc3ccc(C(=O)N4CCN(C(=O)CC[N+](C)(C)C)CC4)c(C)c3)n2C)c(F)c1F [Example B8, [3-[4-[4-[[5-(2,3-Difluoro-4-methoxy-phenyl)-1-methyl-imidazole-2-carbonyl]amino]-2-methyl-benzoyl]piperazin-1-yl]-3-oxo-propyl]-trimethyl-ammonium;2,2,2-trifluoroacetate]",0.18
5,"Cn1c(-c2ccc(OCC#N)c(F)c2F)cnc1C(=O)Nc1ccc(C(=O)N2CCN(C(=O)CC[N+](C)(C)C)CC2)c(Cl)c1 [Example B9, [3-[4-[2-chloro-4-[[5-[4-(cyanomethoxy)-2,3-difluoro-phenyl]-1-methyl-imidazole-2-carbonyl]amino]benzoyl]piperazin-1-yl]-3-oxo-propyl]-trimethyl-ammonium; iodide]",0.056
6,"COc1ccc(-c2cnc(C(=O)Nc3ccc(C(=O)N4CCN(C(=O)C5CC[N+](C)(C)CC5)CC4)c(Cl)c3)n2C)c(F)c1F [Example B10, N-[3-chloro-4-[4-(1,1-dimethylpiperidin-1-ium-4-carbonyl)piperazine-1-carbonyl]phenyl]-5-(2,3-difluoro-4-methoxy-phenyl)-1-methyl-imidazole-2-carboxamide; formate]",0.075
7,"Cn1c(-c2ccc(OC(F)F)cc2F)cnc1C(=O)Nc1ccc(C(=O)N2CCN(C(=O)C[N+](C)(C)C)CC2)c(Cl)c1 [Example B11, [2-[4-[2-chloro-4-[5-[4-(difluoromethoxy)-2-fluoro-phenyl]-1-methyl-imidazole-2-carbonyl]amino]benzoyl]piperazin-1-yl]-2-oxo-ethyl]-trimethyl-ammonium; formate]",0.15
8,"Cn1c(-c2ccc(OC(F)F)c(F)c2F)cnc1C(=O)Nc1ccc(C(=O)N2CCN(C(=O)C[N+](C)(C)C)CC2)c(Cl)c1 [Example B12, [2-[4-[2-chloro-4-[[5-[4-(difluoromethoxy)-2,3-difluoro-phenyl]-1-methyl-imidazole-2-carbonyl]amino]benzoyl]piperazin-1-yl]-2-oxo-ethyl]-trimethyl-ammonium; formate]",0.051
9,"COc1ccc(-c2cnc(C(=O)Nc3ccc(C(=O)N4CCN(C(=O)CC5CC[N+](C)(C)C5)CC4)c(Cl)c3)n2C)c(F)c1F (centres unmarked) [Example B13, N-[3-chloro-4-[4-[2-(1,1-dimethylpyrrolidin-1-ium-3-yl)acetyl]piperazine-1-carbonyl]phenyl]-5-(2,3-difluoro-4-methoxy-phenyl)-1-methyl-imidazole-2-carboxamide; formate]",0.068
10,"Cn1c(-c2ccc(OC(F)F)c(F)c2F)cnc1C(=O)Nc1ccc(C(=O)N2CCN(C(=O)C3CCN(C(=O)C[N+](C)(C)C)CC3)CC2)c(Cl)c1 [Example B14, [2-[4-[4-[2-chloro-4-[[5-[4-(difluoromethoxy)-2,3-difluoro-phenyl]-1-methyl-imidazole-2-carbonyl]amino]benzoyl]piperazine-1-carbonyl]-1-piperidyl]-2-oxo-ethyl]-trimethyl-ammonium; formate]",0.076
11,"Cn1c(-c2ccc(OC(F)F)c(F)c2)cnc1C(=O)Nc1ccc(C(=O)N2CCN(C(=O)C[N+](C)(C)C)CC2)c(Cl)c1 [Example B15, [2-[4-[2-chloro-4-[[5-[4-(difluoromethoxy)-3-fluoro-phenyl]-1-methyl-imidazole-2-carbonyl]amino]benzoyl]piperazin-1-yl]-2-oxo-ethyl]-trimethyl-ammonium; formate]",0.14
12,"COc1ccc(-c2cnc(C(=O)Nc3ccc(C(=O)N4CCN(C(=O)C5CN(C(=O)C[N+](C)(C)C)C5)CC4)c(Cl)c3)n2C)c(F)c1F [Example B16, [2-[3-[4-[2-chloro-4-[[5-(2,3-difluoro-4-methoxy-phenyl)-1-methyl-imidazole-2-carbonyl]amino]benzoyl]piperazine-1-carbonyl]azetidin-1yl]-2-oxo-ethyl]-trimethyl-ammonium; formate]",0.23
13,"COc1ccc(-c2cnc(C(=O)Nc3ccc(C(=O)N4CC(NC(=O)C5CC[N+](C)(C)CC5)C4)c(Cl)c3)n2C)c(F)c1F [Example B17, N-[1-[2-chloro-4-[[5-(2,3-difluoro-4-methoxy-phenyl)-1-methyl-imidazole-2-carbonyl]amino]benzoyl]azetidin-3-yl]-1,1-dimethyl-piperidin-1-ium-4-carboxamide; formate]",0.25
14,"COc1ccc(-c2cnc(C(=O)Nc3ccc(C(=O)N4C[C@@H]5CN(C(=O)[C@@H]6CC[N+](C)(C)C6)C[C@@H]5C4)c(Cl)c3)n2C)c(F)c1F [Example B18, N-[4-[(3aS,6aR)-5-[(3R)-1,1-dimethylpyrrolidin-1-ium-3-carbonyl]-1,3,3a,4,6,6a-hexahydropyrrolo[3,4-c]pyrrole-2-carbonyl]-3-chloro-phenyl]-5-(2,3-difluoro-4-methoxy-phenyl)-1-methyl-imidazole-2-carboxamide; formate]",0.3
15,"COc1ccc(-c2cnc(C(=O)Nc3ccc(C(=O)N4C[C@H]5CN(C(=O)C[N+](C)(C)C)C[C@H]5C4)c(Cl)c3)n2C)c(F)c1F [Example B19, [2-[(3aS,6aR)-5-[2-chloro-4-[[5-(2,3-difluoro-4-methoxy-phenyl)-1-methyl-imidazole-2-carbonyl]amino]benzoyl]-1,3,3a,4,6,6a-hexahydropyrrolo[3,4-c]pyrrol-2-yl]-2-oxo-ethyl]-trimethyl-ammonium; formate]",0.31
16,"COc1ccc(-c2cnc(C(=O)Nc3ccc(C(=O)N4CCN(C(=O)C[N+](C)(C)C)CC4)c(Cl)c3)n2C)c(F)c1F [Example B20, [2-[4-[2-chloro-4-[[5-(2,3-difluoro-4-methoxy-phenyl)-1-methyl-imidazole-2-carbonyl]amino]benzoyl]piperazin-1-yl]-2-oxo-ethyl]-trimethyl-ammonium; formate]",0.076
17,"COc1ccc(-c2cnc(C(=O)Nc3ccc(C(=O)N4CCN(C(=O)C[N+](C)(C)C)CC4)c(C)c3)n2C)c(F)c1F [Example B21, [2-[4-[4-[5-(2,3-difluoro-4-methoxy-phenyl)-1-methyl-imidazole-2-carbonyl]amino]-2-methyl-benzoyl]piperazin-1-yl]-2-oxo-ethyl]-trimethyl-ammonium; formate]",0.28
